Results published in PMC9211397, “High-Throughput Screening Platform To Identify Inhibitors of Protein Synthesis with Potential for the Treatment of Malaria” (Antimicrobial Agents and Chemotherapy, 2022).
“And” between values parts separate entries of the source, which are not always exact repeats. Identical values can stand only once. Like-named read-outs stand apart in the source and are kept apart here.

How the values were obtained:
[1] = target: P. falciparum translation (P. falciparum lysate); assay: P. falciparum in vitro translation (PfIVT) assay, lysate-based, luciferase reporter; format: biochemical, Plasmodium falciparum; conditions: for IC50: 8-point, weighted mean ± SD of two technical replicates, read-out: IC50 value (μM) PfIVT; for PfIVT inhibition at 30 μM (%): single-point screen
Excerpt: (§1) Our P. falciparum in vitro translation (PfIVT) assay is built upon previously established assays ([14], [17]) and is summarized in Fig. 1A. In this assay, successful reconstitution of Plasmodium protein translation is reported via synthesis of a luciferase reporter. For PfIVT, two independent untranslated regions (UTRs), previously shown to promote strong levels of translation ([17]), were introduced upstream and downstream of the luciferase. The 5′ UTR from P. falciparum histidine-rich protein 3 (PfHrp3) ([18]) was introduced upstream of the reporter gene, and the 3′ UTR from P. falciparum histidine-rich protein 2 (PfHrp2) gene ([19]) was introduced downstream. For the reporter construct to support our complementary human IVT assay (HsIVT), the 5′ UTR was replaced with an internal ribosome entry site (IRES) from encephalomyocarditis virus (EMCV) ([20]) and the 3′ UTR was replaced with a poly(A) tail ([21]). […] Finally, a 30-bp poly(A) tail, present within the vector and downstream of the luciferase gene, was inserted to enhance mRNA stability ([21]).
(§2) Translationally active P. falciparum or human embryonic kidney (HEK) 293F lysates were supplemented with accessory, helper, amino acid, and energy regeneration solutions (see Materials and Methods for details). In vitro translation reactions were initiated by the addition of purified mRNA to each reaction well. Using this basic assay format, a number of parameters were assessed and optimized, namely, assay temperature, time, mRNA concentration, and reaction volume (summarized in Fig. S2 in the supplemental material). In addition, we compared the luminescence signal of the CBG firefly luciferase with CBG99, derived from the click beetle […] ([18]).
3D7 parasites were synchronized following two rounds of treatment with D-sorbitol (5%), as previously described ([40]). The hematocrit was reduced from 5% (for standard culture) to 1.5 to 2% and cultures were transferred into HYPERflasks (Corning). Fresh medium was added once or twice daily. […] Harvested red blood cells (infected) were lysed by incubation in 0.1% (wt/vol) saponin on ice for 10 min with gentle agitation. Free parasites were harvested by centrifugation (2,800 × g, 10 min, 4°C) and washed 3 times in wash buffer (WB; 100 mM potassium acetate, 2.5 mM magnesium acetate, 45 mM HEPES [pH 7.4], 250 mM sucrose, 2 mM dithiothreitol, and 15 μM leupeptin) to remove lysed red blood cell debris. The resulting pellet was resuspended in 1 volume of WB supplemented with cOmplete EDTA-free protease inhibitor cocktail (Roche; 1 tablet/20 mL) and human RNase A inhibitor (Sigma; 5 U/mL). Parasite lysis was achieved by nitrogen cavitation using a prechilled 45-mL Parr cell disruption vessel (1,500 lb/in^2, 60 min, 4°C). To clarify the lysate, it was centrifuged (10,000 × g, 15 min, 4°C), and the supernatant was collected, transferred into fresh tubes, and centrifuged (30,000 × g, 15 min, 4°C). As a quality assurance step for each lysate, the RNA content of the resulting supernatant was determined using a NanoDrop spectrophotometer (Shimadzu). Supernatants with RNA levels of >250 ng/μL were aliquoted (100 μL), flash frozen in liquid nitrogen, and stored at −80°C.

[2] = target: human translation (HEK 293F lysate); assay: Human in vitro translation (HsIVT) assay, HEK 293F lysate, luciferase reporter; format: biochemical; conditions: weighted mean ± SD of two technical replicates, read-out: IC50 value (μM) HsIVT
Excerpt: as §1, §2
FreeStyle human embryonic kidney (HEK) 293F cells (Thermo Fisher Scientific) were grown in 500-mL polycarbonate Erlenmeyer vented flasks (Corning) containing FreeStyle 293 expression medium (Life Technologies) upon reaching a density of approximately 2 × 10^6. Cells were then centrifuged at 1,000 × g for 10 min at 4°C, the medium was discarded, and the resulting pellet was washed once in buffer II containing 20 U of human placental RNase inhibitor (Sigma-Aldrich) and cOmplete EDTA-free inhibitor cocktail (Roche) before being centrifuged at 2,800 × g for 10 min. Clarified HEK cell lysate was obtained in the same way as described for P. falciparum lysate.
PfIVT and HsIVT reactions (5 μL final volume) were performed in 384-well plates (Corning) containing 50% lysate from cells (either P. falciparum or HEK 293F), 10% amino acid solution (final concentration of 400 μM for each amino acid in 60 mM KOH; biotechrabbit), 10% energy recovery solution (final assay concentrations of 40 mM HEPES [pH 7.4], 1.5 mM ATP, 0.15 mM GTP, […] creatine phosphate, and 40 U/mL creatine phosphokinase), 10% helper solution (final assay concentrations of 200 μM cystine, 2% polyethylene glycol 3000 [PEG 3000], 1 mM spermidine, 0.5 mM folinic acid, and 15 μM leupeptin), 10% supplemental salt solution (22.5 mM HEPES [pH 7.4], 50 mM potassium acetate, 1 mM magnesium acetate, 1 mM DTT, 1 U/mL human placental RNase inhibitor, 0.1 mM leupeptin), and 10% cbg99 luciferase mRNA (3,000 ng/mL). A master mix solution containing all components was prepared on ice prior to assays, and 5 μL was dispensed into wells using an automated Integra VIAFLO 16-channel 12.5-μL pipette.

CBG99 luciferase = CBG99 luciferase (Pyrophorus plagiophthalamus, UniProt Q7M4K1); assay: Luciferase counterscreen (false-positive counterscreen); format: biochemical, click beetle
Experimental: Hits identified in our primary assay screen were assessed for their potential to interfere with the cbg99 luciferase reporter. For this counterscreen, the master mix containing all the components required for translation (as described above) was incubated for 210 min at 32°C, resulting in the in vitro translation of cbg99 luciferase. The produced luciferase was then incubated with test compounds for 5 min prior to the addition of luciferase reaction buffer. […] Hits from the primary screen were assessed as luciferase inhibitors in 8-point dose-dependent assays ranging from 30 μM to 13.7 nM (1:3 dilutions). Levels of luciferase inhibition were determined relative to the positive control.

[3] = Pandemic Box hits; weighted mean ± SD of two technical replicates; read-out: IC50 value (μM) Counterscreen
[4] = Pathogen Box hits; weighted mean ± SD of two technical replicates; read-out: IC50 value (μM) Counterscreen

CBG99 luciferase, sequence (Q7M4K1 entry or part of it): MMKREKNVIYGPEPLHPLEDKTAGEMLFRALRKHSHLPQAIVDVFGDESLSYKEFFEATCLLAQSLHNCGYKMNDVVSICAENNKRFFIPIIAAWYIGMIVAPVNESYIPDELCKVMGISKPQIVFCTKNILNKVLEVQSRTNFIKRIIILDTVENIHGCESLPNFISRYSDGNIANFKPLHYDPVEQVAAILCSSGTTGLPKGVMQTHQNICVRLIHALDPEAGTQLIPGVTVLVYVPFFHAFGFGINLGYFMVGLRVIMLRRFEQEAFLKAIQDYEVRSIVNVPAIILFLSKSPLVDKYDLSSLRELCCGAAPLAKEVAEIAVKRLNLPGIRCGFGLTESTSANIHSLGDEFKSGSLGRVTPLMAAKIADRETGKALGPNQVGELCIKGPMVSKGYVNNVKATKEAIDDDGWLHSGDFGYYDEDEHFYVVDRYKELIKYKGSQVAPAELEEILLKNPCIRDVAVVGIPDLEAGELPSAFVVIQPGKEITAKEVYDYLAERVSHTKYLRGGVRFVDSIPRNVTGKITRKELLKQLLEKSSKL

| SMILES | IC50 ([1]; Pandemic Box hits) | PfIVT inhibition at 30 μM (%) ([1]; Pandemic Box) | IC50 ([2]; Pandemic Box hits) [µM] | IC50 (CBG99 luciferase; [3]) [µM] | IC50 ([1]; Pathogen Box hits) [µM] | PfIVT inhibition at 30 μM (%) ([1]; Pathogen Box) | IC50 ([2]; Pathogen Box hits) [µM] | IC50 (CBG99 luciferase; [4]) [µM] | IC50 (CBG99 luciferase; read-out: IC50 value (μM) Counterscreen; Pandemic Box hits; weighted mean ± SD of two technical replicates) [µM] | IC50 (CBG99 luciferase; read-out: IC50 value (μM) Counterscreen; Pathogen Box hits; weighted mean ± SD of two technical replicates) [µM] | activity against PfIVT at 100 μM [1] |
| --- | --- | --- | --- | --- | --- | --- | --- | --- | --- | --- | --- |
| NC[C@H]1O[C@H](O[C@H]2[C@H](O)[C@@H](O[C@H]3O[C@H](CO)[C@@H](O)[C@H](N)[C@H]3O)[C@H](N)C[C@@H]2N)[C@H](N)C[C@@H]1O [MMV002459] | 29 µM and > 30 µM | 87.3 | 22 ± 0.3 | > 30 |  |  |  |  |  |  |  |
| Cc1oncc1C(=O)Nc1ccc(C(F)(F)F)cc1 [MMV003291] | 2 ± 0.07 µM | 52.9 | > 30 | 0.5 ± 0.08 |  |  |  |  |  |  |  |
| CC(C)Nc1ncnc2c1cnn2-c1ccc(Cl)cc1 [MMV108465] | 17 ± 0.8 µM | 62.6 | 23 ± 0.11 | 7.6 ± 0.5 |  |  |  |  |  |  |  |
| CCOc1ccc(C(=O)NCCc2ccccc2)cc1 [MMV124656] | 14 ± 0.9 µM | 72.6 | 17 ± 0.16 | 3.8 ± 0.08 |  |  |  |  |  |  |  |
| Clc1cccc(-c2nnc(-c3ccccc3)o2)c1 [MMV141011] | > 30 µM | 51.8 | > 30 | 10 ± 0.8 |  |  |  |  |  |  |  |
| O=C(O)c1cc(-c2ccc(Br)cc2)nc2ccc(Cl)cc12 [MMV247764] | 14 ± 0.7 µM | 63.2 | 23 ± 0.2 | 3.2 ± 0.06 |  |  |  |  |  |  |  |
| Cc1ccc(C(=O)Nc2ccc(S(=O)(=O)O)c3cc(S(=O)(=O)O)cc(S(=O)(=O)O)c23)cc1NC(=O)c1cccc(NC(=O)Nc2cccc(C(=O)Nc3cc(C(=O)Nc4ccc(S(=O)(=O)O)c5cc(S(=O)(=O)O)cc(S(=O)(=O)O)c45)ccc3C)c2)c1 [MMV637953] |  |  |  |  | 3.1 ± 0.07 | 78.7 | > 30 | > 30 |  |  |  |
| COc1ccc(C(=N)N)cc1-c1cn(-c2ccc(C(=N)N)cc2)nn1 [MMV675998] |  |  |  |  | 13 ± 0.9 | 68.9 | 18 ± 0.13 | > 30 |  |  |  |
| Cc1c[nH]c(CCNC(=O)c2cc(-c3ccc(Cl)cc3)cs2)n1 [MMV676350] |  |  |  |  | 16 ± 0.8 | 65.1 | 6.7 ± 0.13 | > 30 |  |  |  |
| O=C(Nc1nc(-c2ccccn2)cs1)c1cncn1-c1ccccc1 [MMV676512] |  |  |  |  | > 30 | 54.2 | 22 ± 0.46 | > 30 |  |  |  |
| COc1ccc2nc(C)cc(OCC(=O)Nc3ccccc3OC)c2c1 [MMV687188] |  |  |  |  |  | 64.9 | > 30 | > 30 |  |  |  |
| NC(=O)c1cc(Br)ccc1OCCOc1ccccc1 [MMV687243] |  |  |  |  | 2.2 ± 0.08 | 82.5 | 13 ± 0.2 | 0.9 ± 0.09 |  |  |  |
| CCCCOC(=O)Nc1cc2[nH]c(C3CCCCC3)nc2cc1N1CCCC1 [MMV687730] |  |  |  |  | 3.9 ± 0.8 | 72.4 | > 30 | > 30 |  |  |  |
| N=C(N)Nc1ccc(-c2ccc(-c3ccc(N=C(N)N)c(Cl)c3)o2)cc1Cl [MMV688271] |  |  |  |  | 18 ± 0.9 | 65.7 | 13 ± 0.16 | > 30 |  |  |  |
| COc1cc(C2=NCCN2)cc2cc(-c3ccc(C4=NCCN4)cc3)oc12 [MMV688362] |  |  |  |  | 2.8 ± 0.08 | 93.5 | 5.6 ± 0.04 | > 30 |  |  |  |
| COc1cc(C2=NCCN2)ccc1-c1cn(-c2cccc(C3=NCCN3)c2)nn1 [MMV688407] |  |  |  |  | 6 ± 0.09 | 98.7 | 5.2 ± 0.02 | > 30 |  |  |  |
| COc1cc(C2=NCCN2)ccc1-n1cc(-c2cccc(C3=NCCN3)c2)nn1 [MMV688474] |  |  |  |  | 16 ± 0.9 | 78.4 | 14 ± 0.07 | > 30 |  |  |  |
| COc1ccc(C2=NCCN2)cc1-c1cn(-c2cccc(C3=NCCN3)c2)nn1 [MMV688547] |  |  |  |  | 1.8 ± 0.07 | 96.7 | 2.7 ± 0.02 | > 30 |  |  |  |
| CC(=O)Oc1ccccc1C(=O)Nc1ncc([N+](=O)[O-])s1 [MMV688991, nitazoxanide, reference compound] | 0.02 ± 0.007 µM | 98.3 | 0.04 ± 0.0003 |  | 0.02 ± 0.008 | 97.0 | 0.04 ± 0.0003 |  | 0.04 ± 0.008 | 0.02 ± 0.008 |  |
| O=C(Nc1nnc(-c2ccccc2)o1)c1ccc(F)cc1 [MMV1578578] | 3.7 ± 0.07 µM | 74.6 | 10 ± 0.12 | 1.3 ± 0.08 |  |  |  |  |  |  |  |
| CC(Cc1ccccc1)C(=O)Nc1ccc(Cl)cc1C(=O)O (stereo not shown) [MMV1579781] | 8.1 ± 0.09 µM | 72.4 | > 30 | 0.5 ± 0.08 |  |  |  |  |  |  |  |
| C(=C\c1nc2ccccc2[nH]1)/c1ccc2c(c1)OCO2 [MMV1582495] | 0.6 ± 0.07 µM | 89.9 | 3.1 ± 0.04 | 1.7 ± 0.08 |  |  |  |  |  |  |  |
| Cn1cc(NC(=O)c2cc(NC(=O)c3ccc(/C=C/c4cnc5ccccc5c4)cc3)cn2C)cc1C(=O)NCCN1CCOCC1 [MMV1634391] | 17 ± 0.6 µM | 52.4 | 1.1 ± 0.01 | > 30 |  |  |  |  |  |  |  |
| CCC[C@@H]1C[C@@H](C(=O)N[C@@H]([C@H]2O[C@H](SC)[C@H](O)[C@@H](O)[C@H]2O)[C@H](C)Cl)N(C)C1 [clindamycin, reference compound] |  |  |  |  |  |  |  |  |  |  | not active |
| C[C@H]1c2cccc(O)c2C(=O)C2=C(O)[C@]3(O)C(=O)C(C(N)=O)=C(O)[C@@H](N(C)C)[C@@H]3[C@@H](O)[C@@H]21 [doxycycline, reference compound] |  |  |  |  |  |  |  |  |  |  | not active |
